Measured values taken from paper PMC6839509, “Fluorescent probes towards selective cathepsin B detection and visualization in cancer cells and patient samples” (Chemical Science, 2019).

Tests used:
[1] = biological target: T1, cathepsin B in human cancer cell lines (Homo sapiens, UniProt P07858); assay: Detection of active cathepsin B in cancer cells using Cy5-labeled MP-CB-2 probe (SDS-PAGE, Western blot); assay type: cell-based; details: A-431 cells; E-64d 25 μM; 1 μM MP-CB-2
T1 construct: we were able to label both cathepsin B active forms (single chain 29 kDa, and light chain 6 kDa); endogenous in cells; host or cells: human cancer cell lines (A-431, HCT-116, OVCAR-5, SK-OV-3, MDA-MB-231, U2-OS, PC-3, HeLa and others)
Method: 50 000 cells from fourteen adherent cancer cell lines were seeded into 12-well plates and allowed to attach overnight. In parallel, 50 000 cells from four non-adherent cancer cell lines were placed into 12-well plates and cultured overnight. The next day, MP-CB-2 ABP was added to the cells (1 μM final concentration) and incubated for various times (1, 4, 8, 24 hours). Next, cells were harvested, centrifuged at 500 × g for 5 min, cell pellets were washed with 1× DPBS, cells were centrifuged again at 500 × g for 5 min, and the supernatant was discarded. Finally, cell pellets were solubilized in 100 μL of 1× SDS/DTT and boiled for 5 min, cooled to room temperature and sonicated. Each sample (30 μL) was then subjected to SDS-PAGE analysis (4–12% Bis–Tris Plus 10-well gels, 200 V, 30 min), followed by protein transfer onto the membrane (0.2 μm nitrocellulose membrane, 10 V, 60 min). Ponceau S staining verified equal loading and transfer of proteins. Membranes were blocked in 2.5% BSA in TBS-T for 1 hour at room temperature. […] The images were then analyzed with the Image Studio software.
50 000 of selected cancer cells (A-431, HCT-116, OVCAR-5, SK-OV-3, MDA-MB-231, U2-OS, and PC-3) were seeded into 12-well plates and allowed to attach overnight. […] All images were analyzed with Image Studio software.

[2] = biological target: T2, human recombinant cathepsin B (Homo sapiens, UniProt P07858); assay: Kinetic parameters for inhibition (kobs/I), pseudo-first order; assay type: biochemical; details: inhibitor at least 5-fold excess over cathepsin, 100 μM ACC substrate, pH 5.5, 37 °C, average of at least triplicate, S.D. below 20%
T2 construct: made in house
Method: (§1) All kinetic experiments were performed using a CLARIOStar (BMG LABTECH) plate reader operating in fluorescence kinetic mode using 96-well plates (Corning®, Costar®). ACC-labeled fluorescent substrates were screened at 355 nm (excitation) and 460 nm (emission) wavelengths (gain 650). The cathepsin assay buffer was composed of 100 mM sodium acetate, 100 mM sodium chloride, 10 mM DTT, 1 mM EDTA, pH 5.5. All kinetic studies were performed at 37 °C.
(§2) The kinetic parameters of inhibition of three irreversible Cy5/Cy7 labeled ABPs were determined for cathepsins B, L, V, S and K, and the inhibition parameters of CA-074 and CA-074Me were determined for cathepsins B and L. The kobs/I were measured under pseudo-first order reaction conditions. Individual cathepsins were mixed with various concentrations of ABP (at least 5-fold excess over cathepsins) and 100 μM ACC fluorescent substrate. Experiments were repeated at least in triplicate, and the results are presented as an average (S.D. were below 20%).

[3] = biological target: T3, human recombinant cathepsin L (Homo sapiens, UniProt P07711); assay: as above; assay type: biochemical; details: inhibitor at least 5-fold excess over cathepsin, 100 μM ACC substrate, pH 5.5, 37 °C, average of at least triplicate, S.D. below 20%
T3 construct: with a 100 nM final concentration of each active cathepsin for 30 min; made in house
Method: as §1, §2

[4] = biological target: T4, cathepsin B in cancer cell lysates (Homo sapiens, UniProt P07858); assay: Cathepsin B activity in cancer cell lysates with Ac-Cha-Leu-Glu(O-Bzl)-Arg-ACC substrate, with inhibitors; assay type: biochemical; details: lysates of selected cell lines (HeLa, A431, U2-OS, HCT-116, SKOV-3, MDA-MB-231); inhibitor pre-incubated 15 min; 100 μM substrate
T4 construct: we were able to label both cathepsin B active forms (single chain 29 kDa, and light chain 6 kDa); endogenous in cells; host or cells: human cancer cell lines (A-431, HCT-116, OVCAR-5, SK-OV-3, MDA-MB-231, U2-OS, PC-3, HeLa and others)
Method: Cell pellets from 50 000 cells were re-suspended in cathepsin assay buffer containing 0.5% Triton X-100 for cell lysis. Cell lysis was performed on ice for 30 min. After this time, cells were centrifuged at max speed for 5 min, and the supernatant (supplemented with 10 mM DTT) was used for the kinetic assay. In each assay 100 μM of cathepsin B selective substrate Ac-Cha-Leu-Glu(O-Bzl)-Arg-ACC was used, and the reaction progress was monitored for 30 min. In the experiments with inhibitors, cell lysate was pre-incubated with inhibitor for 15 min, followed by substrate addition and kinetic readout. Each measurement was performed three times and the substrate hydrolysis rate (RFU/s) in control (no inhibitor) was set to 100%, and other values were adjusted accordingly.

T3 sequence (P07711 114-333): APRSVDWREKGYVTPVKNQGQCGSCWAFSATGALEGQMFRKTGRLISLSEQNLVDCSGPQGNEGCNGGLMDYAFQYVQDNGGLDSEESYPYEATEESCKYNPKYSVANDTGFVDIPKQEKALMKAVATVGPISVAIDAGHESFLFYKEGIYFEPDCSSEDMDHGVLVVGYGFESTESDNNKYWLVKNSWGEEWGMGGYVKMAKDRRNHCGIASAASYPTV

Row | SMILES | prevention of cathepsin B labeling by MP-CB-2 on pre-incubation with inhibitor [1] | kobs/I Cat-B [2] | kobs/I Cat-L [3] | inhibition of cathepsin B activity in cell lysates [4]
1 | CCOC(=O)[C@H]1O[C@@H]1C(=O)N[C@@H](CC(C)C)C(=O)NCCC(C)C [E-64d] | completely prevented | – | – | –
2 | CCCNC(=O)[C@H]1O[C@@H]1C(=O)N[C@H](C(=O)N1CCC[C@H]1C(=O)OC)[C@@H](C)CC [CA-074Me] | completely prevented | 92 M⁻¹ s⁻¹ | 152 M⁻¹ s⁻¹ | –
3 | CCCNC(=O)[C@H]1O[C@@H]1C(=O)N[C@H](C(=O)N1CCC[C@H]1C(=O)O)[C@@H](C)CC [CA-074] | – | 42,000 M^-1s^-1 | n.i. | completely depleted its catalytic activity
